In patent US20060040254A1, “Method for identifying bronchoconstriction relaxing substances” (priority 2004, published 2006):

What was measured:
small human bronchi = test: Relaxation of small human bronchi, with and without 2-APB pre-treatment
Excerpt: More recent studies have lead to the belief that they instead block the TRPC receptor.

[1] = tested on: human isolated airway preparations (bronchus) contracted with LTD4; test: LTD4-induced contraction of isolated human bronchus preparation (force transducer), remaining contraction after exposure to test substance; details: for effectiveness in relaxing broncho-constriction in comparison to capsazepine: LTD4 as broncho-contracting agent, test system of Example 1
Method: Dissection and mounting of lung tissue preparations. Lung tissue was obtained from patients undergoing lobectomia or pulmectomia due to lung carcinoma. The tissue was placed in a dissection chamber continuously perfused with 10 ml min^−1 of a physiological saline solution (PSS) at room temperature. An airway was identified in the cut part of the lobe, and a bronchus of 10-20 mm length and 1-2 mm diameter was obtained. The bronchus was cut into rings of a width of about 2-3 mm. Each bronchial ring was cleaved to obtain an about rectangular oblong preparation, one end of which was tied to a small steel hook connected to a force transducer, while the other end of the preparation was attached to a fixed hook. This is followed by a period of adjustment, as described below. The preparation was mounted in an atmosphere containing […] and 6% of CO2.
Experimental chamber. The experimental chamber has a a volume of 5 ml. It is perfused with PSS at a rate of 3 ml min^−1. Two preparations are mounted in the chamber, and measurements on them are performed in parallel. For mechanical tensioning each force transducer (AME 801, SensoNor A/S, Horten, Norway) is connected to a micrometer screw. The substances to be tested, the reference substance (capsazepine), and transmitter (LTD4) are injected upstream of the preparation(s).
Materials. PPS (physiological saline solution, in mM): NaCl, 117; KCl, 4.87; MgSO4, 0.60; NaHCO3, 25.0; CaCl2, 1.60; glucose, 5.23. The solution is saturated with a mixture of 94% oxygen and 6% carbon dioxide, giving a pH of 7.40±0.05 in the experimental chamber. All substances are prepared as stock solution dissolved in the vehicles ethanol or DMSO. Leukotriene D4 (LTD4; Keyman Ltd.): 10 μl of a 100 μM ethanol stock solution. Capsazepine (Sigma Aldrich): 10 μl of a 0.1 M ethanol stock solution. Substance to be tested: 10-100 μl of a 0.01-0.1 M ethanol or DMSO stock solution. Solution for establishing the passive tension level: calcium-free PSS+2 mM EGTA+20 mM caffeine. To exclude effects by the test substance vehicle, ethanol or DMSO, respectively, were added during the entire experiment except during the presence of test substance.
An exemplary test is shown in FIG. 1 in which capital letters indicate interference with the test system. The material for the preparation was a bronchus (inner diameter about 1 mm) from a occasional smoker but with the epithelium intact. Adjustment and stretch. After mounting as described above the preparation is allowed to adjust with a low passive tone in the experimental chamber. The composition of the gas is changed to 94% (v/v) of oxygen. After a short adjustment period, PSS with 10 nM LTD4 is added to the experimental chamber upstream of the preparation (A). The preparation is stretched repeatedly (B) until it exerts a contraction force of around 150 mg. When the contraction has levelled off, leukotriene-free solution is administered for 1 hour (C), resulting in a relaxation. A second injection of 10 nM LTD4 (D) makes the preparation return to the tensioned state. At the peak tension leukotriene-free solution is again administered (E). After a third injection of 10 nM LTD4 (F) the preparation returns to the tensioned state. At the peak, PSS with 10 μM capsazepine (G) is added, resulting in a relaxation. After 1 h exposure to capsazepine, LTD4 is added, resulting in a contraction (H). In comparison with the control LTD4 contraction (F), a substantially weaker contraction is now observed (H). […]

[2] = tested on: guinea pig airway preparations; details: cited from earlier work
VR1 = VR1 (Rattus norvegicus, UniProt O35433); details: capsaicin-induced effects in rodents; cited from earlier work
Sequence of VR1 (O35433 whole entry): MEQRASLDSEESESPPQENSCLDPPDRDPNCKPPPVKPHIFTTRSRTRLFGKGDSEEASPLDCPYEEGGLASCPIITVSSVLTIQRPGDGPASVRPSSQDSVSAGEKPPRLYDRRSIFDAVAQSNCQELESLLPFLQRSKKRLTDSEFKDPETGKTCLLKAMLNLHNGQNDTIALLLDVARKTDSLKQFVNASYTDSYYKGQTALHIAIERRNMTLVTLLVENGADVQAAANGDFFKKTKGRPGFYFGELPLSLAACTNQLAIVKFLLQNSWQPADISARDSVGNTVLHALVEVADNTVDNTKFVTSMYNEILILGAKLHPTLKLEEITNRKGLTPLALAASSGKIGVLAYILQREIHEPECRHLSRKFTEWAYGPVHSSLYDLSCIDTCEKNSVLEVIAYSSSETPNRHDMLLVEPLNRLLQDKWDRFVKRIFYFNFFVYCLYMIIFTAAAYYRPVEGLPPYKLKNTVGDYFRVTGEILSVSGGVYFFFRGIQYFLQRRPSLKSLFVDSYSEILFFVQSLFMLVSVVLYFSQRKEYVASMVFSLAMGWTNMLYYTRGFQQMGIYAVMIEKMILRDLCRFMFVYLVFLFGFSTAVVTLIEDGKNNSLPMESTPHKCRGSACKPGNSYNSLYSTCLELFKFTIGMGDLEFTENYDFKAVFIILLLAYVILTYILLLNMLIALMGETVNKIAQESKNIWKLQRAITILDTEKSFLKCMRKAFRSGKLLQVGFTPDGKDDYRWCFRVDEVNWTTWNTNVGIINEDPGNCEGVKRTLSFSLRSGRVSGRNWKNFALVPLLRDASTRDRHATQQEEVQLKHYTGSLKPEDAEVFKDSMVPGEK

NCCOB(c1ccccc1)c1ccccc1 [2-APB, 2-amino-ethoxydiphenylborate]
relaxation of small human bronchi (small human bronchi): relaxes small human bronchi

C=C(C)[C@]12C[C@@H](C)[C@@]34O[C@](Cc5ccccc5)(O[C@@H]1[C@@H]3C=C(COC(=O)Cc1cc(I)c(O)c(OC)c1)C[C@]1(O)C(=O)C(C)=C[C@@H]41)O2 [I-RTX, iodo-resiniferatoxin]
inhibition of leukotriene-induced bronchoconstriction ([1]; human bronchial preparations, found by the present inventors): did not inhibit | potency of inhibition of capsaicin-induced bronchoconstriction relative to capsazepine [2]: 10-30 times | VR1 antagonist potency relative to capsazepine (VR1): at least 40 times

Oc1cc2c(cc1O)CN(C(=S)NCCc1ccccc1)CCC2 [RES 1-83]
effectiveness in relaxing broncho-constriction in comparison to capsazepine [1]: substantially less effective

Oc1cc2c(cc1O)CN(C(=S)NCc1ccc(C(F)(F)F)cc1)CCC2 [RES 3-22]
effectiveness in relaxing broncho-constriction in comparison to capsazepine [1]: about equally effective

Oc1c(Cl)cc2c(c1Cl)CCCN(C(=S)NCCc1ccc(Cl)cc1)C2 [RES 5-21]
effectiveness in relaxing broncho-constriction in comparison to capsazepine [1]: substantially more effective

Oc1cc2c(cc1O)CN(C(=S)NCCc1ccc(Cl)cc1)CCC2 [capsazepine]
remaining contraction (test force) relative to that caused by the control force ([1]; 10 μM capsazepine, 1 h exposure, 10 nM LTD4, bronchus from occasional smoker): about 55%

Cn1c(=O)c2[nH]cnc2n(C)c1=O [theophylline]
relaxation after pre-treatment of small human bronchi with 2-APB (small human bronchi; pre-treatment with 2-APB): not reduced
